Where two headings read alike, the source gives them in different places.
Assays:
[1] = system: Asexual parasites of P. falciparum strain 3D7; test: SYBR Green viability assay on asexual parasites; assay type: cell-based, Plasmodium falciparum; conditions: read-out: Activity against asexual parasites EC50
[2] = system: P. falciparum strain 3D7 gametocytes; test: alamarBlue gametocyte viability assay, strain 3D7
HepG2 cells = test: Cytotoxicity in mammalian HepG2 cell line; conditions: for % Max response: HepG2; for IC50 (μM) in HepG2 cells / IC50 (μM) in HepG2: Inactive = no significant activity at highest tested concentration (46 μM)
[3] = read-out: Gametocytocidal activity EC50, Table 6
[4] = read-out: Gametocytocidal activity EC50, Table 7
[5] = Plasmodium falciparum, 3D7, read-out: Gametocyte IC50
[6] = Plasmodium falciparum, 3D7, read-out: IC50 against gametocytes
[7] = Homo sapiens, HepG2, read-out: IC50 (μM) in HepG2 cells
[8] = Plasmodium falciparum, 3D7, Table 8
[9] = Plasmodium falciparum, 3D7, read-out: Gametocytocidal activity EC50, Table 8
[10] = read-out: Gametocyte IC50, mean of at least 3 independent experiments, P. falciparum 3D7 gametocyte
[11] = Plasmodium falciparum, 3D7, Table 7
[12] = Plasmodium falciparum, 3D7, read-out: Gametocytocidal activity EC50, Table 7
[13] = Plasmodium falciparum, 3D7, read-out: 3D7-IC50

SMILES | EC50 ([1]; Table 6) [nM] | EC50 [2, 3] [nM] | % Max response (HepG2 cells; Table 4) [%] | also measured
CNC(=O)c1ccc(-c2ccc3ncc4ccc(=O)n(-c5cccc(C(F)(F)F)c5)c4c3c2)cc1 | 17 | 61 |  | 
O=C1NCc2cc(-c3ccc4ncc5ccc(=O)n(-c6cccc(C(F)(F)F)c6)c5c4c3)ccc21 | 517 | 1790 |  | 
Cn1c(=O)n(-c2cccc(C(F)(F)F)c2)c2c3cc(-c4cccc(C#N)c4)ccc3ncc21 [drawing 455] |  |  |  | EC50 ([1]; Table 7): 546 nM; EC50 [2, 4]: 2820 nM
CO[C@@H]1[C@@H](OC)[C@H](C)[C@@](O)(CC(=O)O)O[C@H]1[C@H](C)[C@H]1O[C@@]2(CC[C@@](C)([C@H]3CC[C@@](C)([C@@H]4O[C@@H]([C@H]5O[C@](C)(O)[C@H](C)C[C@@H]5C)C[C@@H]4O[C@@H]4C[C@H](OC)[C@@H](OC)[C@H](C)O4)O3)O2)C[C@H](O)[C@H]1C [Maduramicin] |  |  |  | IC50 [2, 5]: 47 nM; IC50 [2, 6]: 3 to 50 nM; Emax (HepG2 cells; Homo sapiens, HepG2, read-out: % Max response): -42%; IC50 (HepG2 cells; Homo sapiens, HepG2, read-out: IC50 (μM) in HepG2): 37.2 µM; IC50 (HepG2 cells; [7]): 37.2 µM
CO[C@H]1/C=C\C=C(/C)C(=O)NC2=CC(=O)C(NCCN(C)C)=C(C[C@@H](C)C[C@H](OC)[C@H](O)[C@@H](C)/C=C(\C)[C@@H]1OC(N)=O)C2=O [Alvespimycin] |  |  | −94 | IC50 (HepG2 cells; [7]): 0.118 µM
CCc1cc2cnc3ccc(-c4ccc(N)nc4)cc3c2n(-c2cccc(C(F)(F)F)c2)c1=O |  |  |  | EC50 [1, 8]: 260 nM; EC50 [2, 9]: 136 nM
Cn1c(=O)n(-c2cccc(C(F)(F)F)c2)c2c3cc(-c4cccc(C#N)c4)ccc3ncc21 [drawing 462] |  |  |  | EC50 ([1]; Table 7): 59 nM; EC50 [2, 4]: 314 nM
CN(C)C(=O)c1cccc(-n2c(=O)ccc3cnc4ccc(-c5ccc(N)nc5)cc4c32)c1 | 859 | 1520 |  | 
O=c1ccc2cnc3ccc(-c4ccccc4)cc3c2n1-c1cccc(C(F)(F)F)c1 | 113 | 627 |  | 
Nc1ccc(-c2ccc3ncc4ccc(=O)n(-c5ccccc5)c4c3c2)cn1 | 33 | 47 |  | 
CN(C)c1ncc(-c2ccc3ncc4ccc(=O)n(-c5cccc(C(F)(F)F)c5)c4c3c2)cn1 | 1950 | 3130 |  | 
CC(=O)Nc1ccc(-c2ccc3ncc4ccc(=O)n(-c5cccc(C(F)(F)F)c5)c4c3c2)cn1 | 106 | 114 |  | 
OC(c1cc(C(F)(F)F)nc2c(C(F)(F)F)cccc12)C1CCCCN1 (stereo not shown) [Mefloquine, mefloquine] |  |  | −97 | IC50 (HepG2 cells; [7]): 29.6 µM
CC(=O)Nc1cccc(-n2c(=O)n(C3CC3)c(=O)c3c(Nc4ccc(I)cc4F)n(C)c(=O)c(C)c32)c1 [Trametinib] |  |  | 14 | IC50 (μM) in HepG2 cells (HepG2 cells; Table 4): Inactive
NC(=O)c1ccc(-c2ccc3ncc4ccc(=O)n(-c5cccc(C(F)(F)F)c5)c4c3c2)cc1 | 1060 | 1270 |  | 
CS(=O)(=O)c1ccc(-c2ccc3ncc4ccc(=O)n(-c5cccc(C(F)(F)F)c5)c4c3c2)cc1 | 266 | 491 |  | 
COC(=O)C[C@](O)(CCCC(C)(C)O)C(=O)O[C@@H]1C(OC)=C[C@]23CCCN2CCc2cc4c(cc2[C@H]13)OCO4 [Omacetaxine] |  |  | −27 | IC50 [2, 10]: 83 nM; % Max response (HepG2 cells; Table 2): −27%; IC50 (μM) in HepG2 (HepG2 cells; Table 2): Curve not complete; IC50 (μM) in HepG2 cells (HepG2 cells; Table 4): Curve not complete
Cn1c(=O)n(-c2cccc(C(F)(F)F)c2)c2c3cc(-c4ccc(N)cc4)ccc3ncc21 |  |  |  | EC50 [1, 11]: 16 nM; EC50 [2, 12]: 69 nM
Nc1ccc(-c2ccc3ncc4ccc(=O)n(-c5cccc(Cl)c5)c4c3c2)cn1 | 10 | 18 |  | 
O=c1ccc2cnc3ccc(Br)cc3c2n1-c1cccc(C(F)(F)F)c1 | 5580 | 4950 |  | 
N#Cc1cccc(-c2ccc3ncc4ccc(=O)n(-c5cccc(C(F)(F)F)c5)c4c3c2)c1 | 283 | 526 |  | 
C[C@H]1[C@@H](O)O[C@@H]2O[C@@]3(C)CC[C@H]4[C@H](C)CC[C@@H]1[C@@]24OO3 [Artenimol (DHA)] |  |  | 20 | IC50 [2, 10]: 77 nM; % Max response (HepG2 cells; Table 2): 20%; IC50 (μM) in HepG2 (HepG2 cells; Table 2): Inactive; IC50 (μM) in HepG2 cells (HepG2 cells; Table 4): Inactive

SMILES | EC50 ([1]; Table 6) [nM] | EC50 [2, 3] [nM] | % Max response (HepG2 cells; Table 4) [%] | also measured
Cc1cc2cnc3ccc(-c4ccc(N)nc4)cc3c2n(-c2cccc(C(F)(F)F)c2)c1=O |  |  |  | EC50 [1, 8]: 205 nM; EC50 [2, 9]: 46 nM
Nc1ccc(-c2ccc3ncc4ccc(=O)n(CC5CCNCC5)c4c3c2)cn1 | 6440 | 11500 |  | 
Cn1c(=O)n(-c2cccc(C(F)(F)F)c2)c2c3cc(-c4ccc(C(N)=O)nc4)ccc3ncc21 |  |  |  | EC50 [1, 11]: 8 nM; EC50 [2, 12]: 43 nM
COc1cccc2c1C(=O)c1c(O)c3c(c(O)c1C2=O)C[C@@](O)(C(=O)CO)C[C@@H]3O[C@H]1C[C@H](N)[C@H](O)[C@H](C)O1 [Adriamycin] |  |  | −35 | IC50 [2, 13]: 526 nM; IC50 (μM) in HepG2 cells (HepG2 cells; Table 4): Inactive
COCCn1c2c([n+](Cc3cnccn3)c1C)C(=O)c1ccccc1C2=O [YM155] |  |  | −92 | IC50 [2, 13]: 372 nM; IC50 (HepG2 cells; [7]): 4.69 µM
COc1ccc(C[C@H](N)C(=O)N[C@H]2[C@@H](O)[C@H](n3cnc4c(N(C)C)ncnc43)O[C@@H]2CO)cc1 [Puromycin] |  |  | −71 | IC50 [2, 13]: 1050 nM; IC50 (HepG2 cells; [7]): 11.8 µM
CCNC(=O)c1noc(-c2cc(C(C)C)c(O)cc2O)c1-c1ccc(CN2CCOCC2)cc1 [NVP-AUY922] |  |  | −88 | IC50 [2, 6]: 3 to 50 nM; IC50 (HepG2 cells; [7]): 0.148 µM
C[C@H]1[C@H](OC(=O)CCC(=O)O)O[C@@H]2O[C@@]3(C)CC[C@H]4[C@H](C)CC[C@@H]1[C@@]24OO3 [Artesunate] |  |  | 18 | IC50 (μM) in HepG2 cells (HepG2 cells; Table 4): Inactive
CC(C)C[C@H](NC(=O)[C@H](Cc1ccccc1)NC(=O)c1cnccn1)B(O)O [Bortezomib] |  |  | −82 | IC50 [2, 13]: 100 nM; IC50 (HepG2 cells; [7]): 0.148 µM
CC[C@@H](C(=O)O)[C@@H]1O[C@@H]([C@@H](C)[C@H](O)[C@H](C)C(=O)[C@H](CC)[C@H]2O[C@]3(C=C[C@@H](O)[C@]4(CC[C@@](C)([C@H]5CC[C@](O)(CC)[C@H](C)O5)O4)O3)[C@H](C)C[C@@H]2C)[C@@H](C)C[C@@H]1C [Narasin] |  |  | −98 | IC50 [2, 6]: 3 to 50 nM; IC50 (HepG2 cells; [7]): 27 µM
CN(C)C/C=C/C(=O)Nc1cc2c(Nc3ccc(F)c(Cl)c3)ncnc2cc1O[C@H]1CCOC1 [Afatinib] |  |  | −100 | IC50 [2, 13]: 935 nM; IC50 (HepG2 cells; [7]): 18.7 µM
c1ccc2c(c1)[I+]c1ccccc1-2 [Diphenyleneiodonium] |  |  |  | IC50 [2, 13]: 100 nM
O=C1C(=O)c2ncccc2-c2cccnc21 [Phanquinone] |  |  | 23 | IC50 [2, 13]: 100 nM; IC50 (μM) in HepG2 cells (HepG2 cells; Table 4): Inactive
CN(C)C(=S)SSC(=S)N(C)C [Thiram] |  |  | 23 | IC50 (μM) in HepG2 cells (HepG2 cells; Table 4): Inactive
C[C@@H]1CC[C@H]2[C@@H](C)C(=O)O[C@@H]3O[C@@]4(C)CC[C@@H]1[C@]32OO4 [Artemisinin, artemisinin] |  |  | 18 | IC50 [2, 13]: 100 nM; IC50 (μM) in HepG2 cells (HepG2 cells; Table 4): Inactive
[O-][n+]1ccccc1SSc1cccc[n+]1[O-] [Dipyrithione] |  |  | −93 | IC50 [2, 13]: 200 nM; IC50 (HepG2 cells; [7]): 10.8 µM
S=C(SSC(=S)N1CCCCC1)N1CCCCC1 [Dicyclopentamethylenethiram disulfide] |  |  | 0 | % Max response (HepG2 cells; Table 2): 0%; IC50 (μM) in HepG2 (HepG2 cells; Table 2): Inactive; IC50 (μM) in HepG2 cells (HepG2 cells; Table 4): Inactive
CN(NC(=O)CC(=O)NN(C)C(=S)c1ccccc1)C(=S)c1ccccc1 [Elesclomol, elesclomol, reference compound] |  |  |  | IC50 [2, 5]: 6 nM
CC(C)C[C@H](NC(=O)[C@H](CCc1ccccc1)NC(=O)CN1CCOCC1)C(=O)N[C@@H](Cc1ccccc1)C(=O)N[C@@H](CC(C)C)C(=O)[C@@]1(C)CO1 [Carfilzomib] |  |  | −79 | IC50 (HepG2 cells; [7]): 1.18 µM
S=C(SSC(=S)N1CCCCC1)N1CCCCC1 [Dicyclopentamethylene-thiuram disulfide, reference compound] |  |  |  | IC50 [2, 5]: 274 nM
CO[C@H]1O[C@@H]2O[C@@]3(C)CC[C@H]4[C@H](C)CC[C@@H]([C@H]1C)[C@@]24OO3 [Artemether] |  |  | 7 | IC50 (μM) in HepG2 cells (HepG2 cells; Table 4): Inactive

Second part, led by results:

EC50 ([1]; Table 6) [nM] | SMILES | EC50 [2, 3] [nM] | % Max response (HepG2 cells; Table 4) [%] | also measured
13300 | O=c1ccc2cnc3ccc(-c4cccc(N5CCCC5)c4)cc3c2n1-c1cccc(C(F)(F)F)c1 | 16100 |  | 
1130 | O=C1NCCc2cc(-c3ccc4ncc5ccc(=O)n(-c6cccc(C(F)(F)F)c6)c5c4c3)ccc21 | 3170 |  | 
> 20000 | O=c1ccc2cnc3ccc(-c4ccc(-c5nnn[nH]5)cc4)cc3c2n1-c1cccc(C(F)(F)F)c1 | 20900 |  | 
2080 | CN(C)C(=O)c1ccc(-c2ccc3ncc4ccc(=O)n(-c5cccc(C(F)(F)F)c5)c4c3c2)cc1 | 1990 |  | 
683 | CCOc1cccc(-n2c(=O)ccc3cnc4ccc(-c5ccc(N)nc5)cc4c32)c1 | 912 |  | 
352 | CC(=O)c1cccc(-c2ccc3ncc4ccc(=O)n(-c5cccc(C(F)(F)F)c5)c4c3c2)c1 | 1240 |  | 
580 | O=c1ccc2cnc3ccc(-c4ccc(F)cc4)cc3c2n1-c1cccc(C(F)(F)F)c1 | 2660 |  | 
> 20000 | O=c1ccc2cnc3ccc(N4CCNCC4)cc3c2n1-c1cccc(C(F)(F)F)c1 | 22000 |  | 
384 | NS(=O)(=O)c1ccc(-c2ccc3ncc4ccc(=O)n(-c5cccc(C(F)(F)F)c5)c4c3c2)cc1 | 303 |  | 
882 | Nc1ccc(-c2ccc3ncc4ccc(=O)n(C5CCCC5)c4c3c2)cn1 | 1260 |  | 
